In paper PMC3189933, “Acylpeptide Hydrolase Inhibition as Targeted Strategy to Induce Proteasomal Down-Regulation” (PLoS ONE, 2011):

Assays:
[1] = biological target: T1, porcine APEH (Sus scrofa, UniProt P19205); test: Inhibition of porcine liver APEH, Ac-Ala-pNA substrate; format: biochemical
T1 construct: mammalian APEHs purified from both porcine liver and human colon carcinoma intestinal cells (Caco-2); purchased Takara; host or cells: porcine liver
T1 sequence (P19205 1-732): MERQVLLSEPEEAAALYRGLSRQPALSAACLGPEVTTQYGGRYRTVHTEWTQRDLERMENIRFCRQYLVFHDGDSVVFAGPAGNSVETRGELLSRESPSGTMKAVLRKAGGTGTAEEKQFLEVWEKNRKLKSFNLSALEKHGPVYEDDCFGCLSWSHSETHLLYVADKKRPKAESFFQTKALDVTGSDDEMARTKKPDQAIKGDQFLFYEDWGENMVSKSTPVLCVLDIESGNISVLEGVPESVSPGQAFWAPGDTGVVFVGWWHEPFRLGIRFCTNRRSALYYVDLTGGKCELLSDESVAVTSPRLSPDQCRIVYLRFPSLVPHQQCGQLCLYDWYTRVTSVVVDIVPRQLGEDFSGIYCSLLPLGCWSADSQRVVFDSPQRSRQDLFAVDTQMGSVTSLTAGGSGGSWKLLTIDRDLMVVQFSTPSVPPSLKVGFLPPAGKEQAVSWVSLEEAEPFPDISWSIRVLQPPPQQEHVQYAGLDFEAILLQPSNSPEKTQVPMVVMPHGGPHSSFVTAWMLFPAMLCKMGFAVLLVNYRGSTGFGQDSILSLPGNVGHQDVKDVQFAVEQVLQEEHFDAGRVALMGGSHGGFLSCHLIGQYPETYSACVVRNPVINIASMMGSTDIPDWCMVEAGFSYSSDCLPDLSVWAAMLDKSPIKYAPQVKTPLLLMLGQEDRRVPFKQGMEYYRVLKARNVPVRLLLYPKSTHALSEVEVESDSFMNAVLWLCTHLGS
Experimental: (§1) APEH activity was expressed in IU.
(§2) Protease inhibitor activities of the SsCEI peptides and the CLA isomers were carried out using a fixed amount of APEH or partially purified proteasome (3–5 nM and 0.12 mg/mL, respectively), and increasing the SsCEI and CLA isomer concentrations. Mixtures were pre-incubated for 30 min at 37°C before the addition of the substrate, and the enzymatic activities were followed as described above. Protease inhibitor activities of the SsCEI peptides and the CLA isomers were determined towards APEHSs. The protease and increasing concentrations of the inhibitors were mixed and preincubated for 30 min at 80°C before the addition of the specific substrate. The residual enzymatic activity was determined using the assay procedure described above.
(§3) All data were obtained from triplicate analyses of three different preparations. Data were presented as means ±S.D. Statistical analysis and IC50 values were calculated with the SigmaPlot 10.0 software through a non-linear curve-fitting method and using a simple binding isotherm equation. Groups were compared by Student's t test, and P<0.05 was considered as significant.

[2] = system: caspase-3 in Caco-2 cells; test: Caspase-3 activity in Caco-2 cells; format: cell-based, human; conditions: 48 h
Experimental: The pro-apoptotic ability of the peptides and the CLA isomers were assayed by measuring the caspase-3 and caspase-8 activities using fluorometric kits, according to the manufacturer instructions. These assays were based on hydrolysis of the substrate acetyl-Asp-Glu-Val-Asp-7-amido-4-methylcoumarin (Ac-DEVD-AMC) or acetyl-Ile-Glu-Thr-Asp-7-amino-4-methyl coumarin (Ac-IETD-AMC) by caspase-3 and caspase-8, respectively. The release of the 7-AMC moiety in protein extracts prepared from the differently treated cells was evaluated by fluorimetry (excitation 360 nm, emission 460 nm). Their amounts were calculated by means of a standard curve prepared with pure AMC, and following normalisation for protein content, the activities were expressed as nmoles AMC/mg protein/min.

[3] = system: proteasome CT-like activity in Caco-2 cells; test: CT-like proteasome activity in Caco-2 cells
Experimental: The synthetic fluorescent substrate N-succinyl-Leu-Leu-Val-Tyr-7-amido-4-methylcoumarin (N-Suc-LLVT-AMC) was used for the measurement of the CT-like activity of the proteasome, at a final concentration of 0.080 mM. The reaction mixture (0.9 mL) containing appropriate amount of proteasome was preincubated as above, in Tris buffer. N-Suc-LLVT-AMC was added, and the release of the fluorescent product (7-AMC) was monitored for 5 min in a Perkin–Elmer LS 50B fluorimeter. The excitation and emission wavelengths were 380 nm and 460 nm, respectively.
Caco-2 cells (ATCC) were cultivated in DMEM supplemented with 10% FBS, 1 mM glutamine and 100 units/mL penicillin-streptomycin at 37°C in a humidified 5% CO2 atmosphere. The cells were studied between passages 12 and 22. The cells were split using trypsin-EDTA solution and plated in 6-well plates at a density of 8×10^4 cells/mL and the medium was replaced every 2–3 days. […]
Following the treatments, the BHK and Caco-2 cells were washed three times with ice cold phosphate-buffered saline and collected immediately at 4°C in lysis buffer (1% Triton X-100, 0.1% SDS, 20 mM Tris-HCl, pH 8.0, 150 mM NaCl, 0.5% sodium deoxycholate and complete protease inhibitors [Roche]). […] The protein concentrations in the clear supernatants were determined (BCA protein assay reagent kit; Pierce) before their use in enzymatic assays or SDS–PAGE.

[4] = system: ΔF508 CFTR-3HA (CFTR-M) in BHK cells; test: CFTR-M accumulation in BHK cells (immunoblot); format: cell-based, Baby Hamster; conditions: 100 µM, 24 h, densitometry vs untreated
Experimental: (§4) The cells were plated in 12-well plates, to a confluence of 60% for the 24-h incubations, and 40% for 48-h exposure to PIs. These treatments were initiated 24-h after the plating of the cells. Phase-contrast images of the cells were taken just before the lysis of the cells for protein analysis, using a Lica DM6000 inverted microscope.

[5] = biological target: T2, partially purified proteasome from Caco-2 cells (Homo sapiens, UniProt P28074); test: CT-like activity of partially purified proteasome from Caco-2 cells (cell-free); format: biochemical; conditions: proteasome 0.12 mg/mL, pre-incubated 30 min at 37°C
T2 construct: a partially purified proteasome fraction from differentiated Caco-2 cells; endogenous in cells; host or cells: Caco-2
T2 sequence (P28074 60-263): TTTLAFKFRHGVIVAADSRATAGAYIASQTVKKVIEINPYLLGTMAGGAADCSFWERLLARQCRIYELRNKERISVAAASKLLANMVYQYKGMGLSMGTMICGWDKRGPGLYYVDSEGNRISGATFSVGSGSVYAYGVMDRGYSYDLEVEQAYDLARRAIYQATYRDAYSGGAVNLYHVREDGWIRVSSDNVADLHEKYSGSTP
Experimental: APEH from Sulfolobus solfataricus was purified as previously reported. Partial purification of human APEH and proteasome was carried out from protein extracts of Caco-2 cell. Briefly, protein extracts (500 µg) were fractionated by gel filtration chromatography on a Superdex 200 PC 3.2/30 column connected to a SMART System (Pharmacia) equilibrated in buffer 50 mM Tris-HCl, pH 7.5, 100 mM NaCl, at 0.1 mL/min. The eluted fractions were assayed using the specific substrates for APEH and the proteasome. The active fractions were collected and used for further analysis.
as §2

[6] = system: APEH in BHK cells; test: APEH activity in BHK cells; format: cell-based, Baby Hamster; conditions: 50 and 100 µM, 48 h
Experimental: as §1, §4

[7] = system: p21Waf1 in Caco-2 cells; test: Immunoblot of p21Waf1 in Caco-2 cells; format: cell-based, human; conditions: 200 µM alone, 48 h
Text: The following antibodies were used: anti-APEH antibody (sc-102311; Santa Cruz Biotechnology); anti-NF-κB/p65 antibody (Thermo Scientific); anti-p21Waf1 antibody (Exbio); pan Ab-5 anti-actin antibody (clone ACTN05, Thermo Scientific); and monoclonal antibodies against polyubiquitinylated proteins conjugated with horseradish peroxidase (FK2H, Enzo, Life Science). The ΔF508CFTR-3HA protein was detected with an anti HA monoclonal antibody (Covance).

[8] = system: APEHSs; test: Inhibition of S. solfataricus APEH (APEHSs), Ac-Leu-pNA substrate; format: biochemical, Sulfolobus solfataricus
Experimental: as §1, §2, §3

`CCCCC/C=C\C=C\CCCCCCCCC(=O)O` [t10c12-CLA, trans10-cis12 CLA] was tested, and the IC50 ([1]; Ac-Ala-pNA 1 mM, 50 mM Tris-HCl pH 7.5, pre-incubated 30 min at 37°C, mean ± SD, read-out: IC50 towards porcine APEH) was 105 ± 23 µM, the “inhibition mechanism towards porcine APEH” value ([1]; Lineweaver-Burk plot) was “non–competitive” and the caspase-3 activity increase ([2]; 200 µM, vs untreated, P<0.01) was “about two”. The “caspase-3 activity, dose response” value ([2]; increasing concentrations up to 200 µM) was “improved at increasing doses”, the “reduction in proteasomal CT-like activity” value ([3]; 200 µM, 48 h) was 40% and the “dose-dependent decrease of CT-like proteasome activity in Caco-2 cells” value ([3]; increasing concentrations, printed 'up to 45% of the residual activity' vs untreated) was “up to 45%”. The “increase of CFTR-M levels” value [4] was “five”, the “effect on partially purified proteasome CT-like activity” value [5] was “not affected” and the “APEH activity in BHK cells” value [6] was “dose-dependent inhibition”. For the same compound, the “increase of p21Waf1” value [7] was “two”, the IC50 ([8]; Ac-Leu-pNA 0.1 mM, 25 mM Tris-HCl pH 7.5, pre-incubated 30 min at 80°C, mean ± SD, read-out: IC50 towards APEHSs) was 80 ± 2 µM and the Ki ([8]; Lineweaver–Burk equation, Ac-Leu-pNA, read-out: Ki towards APEHSs) was 140 ± 20 µM. The “inhibition mechanism towards APEHSs” value ([8]; Michaelis–Menten / Lineweaver–Burk analysis) was “non-competitive”.
